Experiment in all cases: MIC, NCCLS broth microdilution
Holding throughout (format): cell-based
Background: In broth dilution the organism is exposed to a series of concentrations in liquid medium.

For one test, the system named is Serratia marcescens S6. To be noted: MIC of antibiotic compound 1 with the labelled bridged monobactam of formula II and clavulanate, 4 mg/L each.
In test [1] the test system is Pseudomonas aeruginosa MK1184. The note with it: MIC of antibiotic compound 1 with the labelled bridged monobactam of formula II and clavulanate, 4 mg/L each.
Test [2] deals with Klebsiella pneumoniae CF104. To be noted: MIC of antibiotic compound 1 with the labelled bridged monobactam of formula II and clavulanate, 4 mg/L each.
Another test relates to Acinetobacter sp. J2. The note with it: Acinetobacter sp. J2; MIC of antibiotic compound 1 with the labelled bridged monobactam of formula II and clavulanate, 4 mg/L each.
The test system of another test is Enterobacter cloacae P99. To be noted: MIC of antibiotic compound 1 with the labelled bridged monobactam of formula II and clavulanate, 4 mg/L each.
For test [3], the system named is Pseudomonas aeruginosa 1973E. To be noted: MIC of antibiotic compound 1 with the labelled bridged monobactam of formula II and clavulanate, 4 mg/L each. The procedure, abridged: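 Broth microdilution following NCCLS M7-A5, with final DMSO ≤1%. Plates were incubated overnight at 30° C. or 37° C. and growth was read by eye; MIC is the lowest concentration giving complete inhibition of visible growth. In combination tests the formula I compound was serially diluted while partner compounds were held at 4 μg/mL each.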

Test [4] concerns Stenotrophomonas malthophilia 1AC736. The note with it: Stenotrophomonas malthophilia 1AC736; MIC of antibiotic compound 1 with the labelled bridged monobactam of formula II and clavulanate, 4 mg/L each.
Description: Antimicrobial activity of the compounds and of their combinations was determined against a selection of organisms according to the standard procedures described by the National Committee for Clinical Laboratory Standards (National Committee for Clinical Laboratory. Standards (2000). Methods for Dilution Antimicrobial Susceptibility Tests for Bacteria That Grow Aerobically-Fifth Edition: Approved Standard M7-A5. NCCLS, Wayne, Pa., USA).
In all cases the final concentration of DMSO incubated with the bacteria is less than or equal to 1%. […] Plates were incubated overnight at an appropriate temperature (30° C. or 37° C.) and optical densities assessed by eye. The MIC value is defined as the lowest compound concentration completely inhibiting visible growth of the test organism. When combinations between compounds of formula I with compounds of formula II and are evaluated the compounds of formula I are tested in dilution series as described above while the compounds of formula II and III-XIII were present in all wells at a constant concentration of 4 μg/mL each.

The values that follow come from patent publication US20160122320A1, “USEFUL COMBINATIONS OF MONOBACTAM ANTIBIOTICS WITH BETA-LACTAMASE INHIBITORS” (Basilea Pharmaceutica AG, priority 2005, published 2016).

For `CN(C)CCNC(=O)c1ccc(NC(=O)N2CC[C@@H]3[C@H]2C(=O)N3S(=O)(=O)[O-])cc1.[Na+]` [Compound 310, Sodium(1S,5R)-2-[N-(4-{N-[2-(dimethylamino)ethyl]carbamoyl}phenyl)carbamoyl]-7-oxo-2,6-diazabicyclo[3.2.0]heptane-6-sulfonate], the “MIC of antibiotic at fixed inhibitor concentration (4 mg/L)” value in the test on Serratia marcescens S6 was 0.5 µg/mL; in test [1], 16 µg/mL; in test [2] it was 2 µg/mL; in the test on Acinetobacter sp. J2, above 32 µg/mL; in the test with Enterobacter cloacae P99, 4 µg/mL; in test [3] it was 4 µg/mL. The “MIC of antibiotic at fixed inhibitor concentration (4 mg/L)” value in test [4] worked out at 0.125 µg/mL.

As for `NC(=O)c1ccc(NC(=O)N2CC[C@@H]3[C@H]2C(=O)N3S(=O)(=O)[O-])cc1.[Na+]` [Compound 311], the “MIC of antibiotic at fixed inhibitor concentration (4 mg/L)” value was 0.25 µg/mL with Serratia marcescens S6; above 32 µg/mL in test [1]; 0.5 µg/mL in test [2]; 4 µg/mL with Acinetobacter sp. J2; 8 µg/mL with Enterobacter cloacae P99; 4 µg/mL in test [3]. Also, the “MIC of antibiotic at fixed inhibitor concentration (4 mg/L)” value in test [4] came to 0.125 µg/mL.

Take `NC(=O)CNC(=O)c1ccc(NC(=O)N2CC[C@@H]3[C@H]2C(=O)N3S(=O)(=O)[O-])cc1.[Na+]` [Compound 312, Sodium(1S,5R)-2-(N-{4-[N-(carbamoylmethyl)carbamoyl]phenyl}carbamoyl)-7-oxo-2,6-diazabicyclo[3.2.0]heptane-6-sulfonate]: the “MIC of antibiotic at fixed inhibitor concentration (4 mg/L)” value with Serratia marcescens S6 was 0.5 µg/mL; in test [1], above 32 µg/mL; in test [2], 4 µg/mL; in the test on Acinetobacter sp. J2, above 32 µg/mL; with Enterobacter cloacae P99 it was 8 µg/mL; in test [3], 8 µg/mL. For the same molecule, the “MIC of antibiotic at fixed inhibitor concentration (4 mg/L)” value in test [4] stood at 0.125 µg/mL.

With `COc1cc(CNC(=O)N2CC[C@@H]3[C@H]2C(=O)N3S(=O)(=O)[O-])on1.[Na+]` [Compound 313], the “MIC of antibiotic at fixed inhibitor concentration (4 mg/L)” value with Serratia marcescens S6 is 0.25 µg/mL; in test [1], above 32 µg/mL; in test [2], 0.5 µg/mL; in the test on Acinetobacter sp. J2, 4 µg/mL; with Enterobacter cloacae P99, 16 µg/mL; in test [3] it was 4 µg/mL. The “MIC of antibiotic at fixed inhibitor concentration (4 mg/L)” value in test [4] worked out at 0.125 µg/mL.

`O=C(NCc1cccs1)N1CC[C@@H]2[C@H]1C(=O)N2S(=O)(=O)[O-].[Na+]` [Compound 314]: the “MIC of antibiotic at fixed inhibitor concentration (4 mg/L)” value was 0.25 µg/mL in the test on Serratia marcescens S6; above 32 µg/mL in test [1]; 1 µg/mL in test [2]; 4 µg/mL in the test with Acinetobacter sp. J2; 32 µg/mL in the test with Enterobacter cloacae P99; 4 µg/mL in test [3]. Besides, the “MIC of antibiotic at fixed inhibitor concentration (4 mg/L)” value in test [4] is 0.125 µg/mL.

`NC(=O)Nc1ccc(NC(=O)N2CC[C@@H]3[C@H]2C(=O)N3S(=O)(=O)[O-])cc1.[Na+]` [Compound 315]: the “MIC of antibiotic at fixed inhibitor concentration (4 mg/L)” value was 0.25 µg/mL in the test with Serratia marcescens S6; above 32 µg/mL in test [1]; 1 µg/mL in test [2]; 4 µg/mL with Acinetobacter sp. J2; 8 µg/mL in the test on Enterobacter cloacae P99; 4 µg/mL in test [3]. Further, the “MIC of antibiotic at fixed inhibitor concentration (4 mg/L)” value in test [4] is 0.125 µg/mL.

In the case of `O=C(Nc1ccc(O)cc1)N1CC[C@@H]2[C@H]1C(=O)N2S(=O)(=O)[O-].[Na+]` [Compound 316], the “MIC of antibiotic at fixed inhibitor concentration (4 mg/L)” value in the test on Serratia marcescens S6 was determined as 0.25 µg/mL; in test [1] it was 32 µg/mL; in test [2] it was 0.5 µg/mL; with Acinetobacter sp. J2 it was 16 µg/mL; in the test with Enterobacter cloacae P99 it was 8 µg/mL; in test [3], 4 µg/mL. Besides, the “MIC of antibiotic at fixed inhibitor concentration (4 mg/L)” value in test [4] worked out at 0.125 µg/mL.

`O=C(Nc1cccc(O)c1)N1CC[C@@H]2[C@H]1C(=O)N2S(=O)(=O)[O-].[Na+]` [Compound 317]: the “MIC of antibiotic at fixed inhibitor concentration (4 mg/L)” value in the test on Serratia marcescens S6 is 0.25 µg/mL; in test [1], above 32 µg/mL; in test [2], 0.5 µg/mL; with Acinetobacter sp. J2, 16 µg/mL; with Enterobacter cloacae P99, 8 µg/mL; in test [3], 8 µg/mL. Further, the “MIC of antibiotic at fixed inhibitor concentration (4 mg/L)” value in test [4] turned out to be 0.125 µg/mL.

As to `O=C(Nc1ccc2[nH]c(=O)[nH]c2c1)N1CC[C@@H]2[C@H]1C(=O)N2S(=O)(=O)[O-].[Na+]` [Compound 319, Sodium(1S,5R)-7-oxo-2-[N-(2-oxo(3-hydrobenzimidazol-5-yl))carbamoyl]-2,6-diazabicyclo[3.2.0]heptane-6-sulfonate], the “MIC of antibiotic at fixed inhibitor concentration (4 mg/L)” value with Serratia marcescens S6 was 0.25 µg/mL; in test [1], above 32 µg/mL; in test [2], 0.25 µg/mL; in the test with Acinetobacter sp. J2, above 32 µg/mL; with Enterobacter cloacae P99, 16 µg/mL; in test [3], 4 µg/mL. Besides, in test [4], the “MIC of antibiotic at fixed inhibitor concentration (4 mg/L)” value was 0.125 µg/mL.

As to `CCOC(=O)c1cccc(NC(=O)N2CC[C@@H]3[C@H]2C(=O)N3S(=O)(=O)[O-])c1.[Na+]` [Compound 320, Sodium(1S,5R)-2-{N-[3-(ethoxycarbonyl)phenyl]carbamoyl}-7-oxo-2,6-diazabicyclo[3.2.0]heptane-6-sulfonate], the “MIC of antibiotic at fixed inhibitor concentration (4 mg/L)” value in the test with Serratia marcescens S6 is 0.25 µg/mL; in test [1] it was above 32 µg/mL; in test [2] it was 0.5 µg/mL; in the test with Acinetobacter sp. J2, above 32 µg/mL; in the test on Enterobacter cloacae P99 it was 8 µg/mL; in test [3] it was 8 µg/mL. The “MIC of antibiotic at fixed inhibitor concentration (4 mg/L)” value in test [4] is 0.125 µg/mL.

In the case of `O=C(Nc1cccc(CO)c1)N1CC[C@@H]2[C@H]1C(=O)N2S(=O)(=O)[O-].[Na+]` [Compound 321, Sodium(1S,5R)-2-{N-[3-(hydroxymethyl)phenyl]carbamoyl}-7-oxo-2,6-diazabicyclo[3.2.0]heptane-6-sulfonate], the “MIC of antibiotic at fixed inhibitor concentration (4 mg/L)” value in the test with Serratia marcescens S6 was 0.25 µg/mL; in test [1], above 32 µg/mL; in test [2], 1 µg/mL; with Acinetobacter sp. J2 it was 16 µg/mL; with Enterobacter cloacae P99, above 32 µg/mL; in test [3], 4 µg/mL. The “MIC of antibiotic at fixed inhibitor concentration (4 mg/L)” value in test [4] came to 0.125 µg/mL.

Consider `O=C(Nc1ccc(NC(=O)N2CC[C@@H]3[C@H]2C(=O)N3S(=O)(=O)O)cc1)N1CCNCC1` [Compound 326, (1S,5R)-7-oxo-2-{N-[4-(piperazinylcarbonylamino)phenyl]carbamoyl}-2,6-diazabicyclo[3.2.0]heptane-6-sulfonic acid], for which the “MIC of antibiotic at fixed inhibitor concentration (4 mg/L)” value in the test on Serratia marcescens S6 is 0.125 µg/mL; in test [1], 32 µg/mL; in test [2] it was above 32 µg/mL; with Acinetobacter sp. J2 it was 4 µg/mL; in the test with Enterobacter cloacae P99, 8 µg/mL; in test [3], 4 µg/mL. In addition, the “MIC of antibiotic at fixed inhibitor concentration (4 mg/L)” value in test [4] turned out to be 0.125 µg/mL.

In the case of `Nc1ccc(NC(=O)N2CC[C@@H]3[C@H]2C(=O)N3S(=O)(=O)[O-])cc1.[Na+]` [Compound 327, Sodium(1S,5R)-2-[N-(4-aminophenyl)carbamoyl]-7-oxo-2,6-diazabicyclo[3.2.0]heptane-6-sulfonate], the “MIC of antibiotic at fixed inhibitor concentration (4 mg/L)” value was 0.25 µg/mL in the test with Serratia marcescens S6; above 32 µg/mL in test [1]; 2 µg/mL in test [2]; 2 µg/mL with Acinetobacter sp. J2; 32 µg/mL in the test on Enterobacter cloacae P99; 2 µg/mL in test [3]. The “MIC of antibiotic at fixed inhibitor concentration (4 mg/L)” value in test [4] was 0.125 µg/mL.

`Nc1nc(CC(=O)N2CC[C@@H]3[C@H]2C(=O)N3S(=O)(=O)O)cs1` [Compound 401]: the “MIC of antibiotic at fixed inhibitor concentration (4 mg/L)” value was 0.125 µg/mL with Serratia marcescens S6; above 32 µg/mL in test [1]; 0.5 µg/mL in test [2]; 4 µg/mL with Acinetobacter sp. J2; 16 µg/mL in the test on Enterobacter cloacae P99; 8 µg/mL in test [3]. The “MIC of antibiotic at fixed inhibitor concentration (4 mg/L)” value in test [4] is 0.125 µg/mL.
